Assay results published in US20210251994A1, “INCREASING IMMUNE ACTIVITY THROUGH MODULATION OF POSTCELLULAR SIGNALING FACTORS” (FLAGSHIP PIONEERING INNOVATIONS V, INC., priority 2018, published 2021).
“Also recorded” adds a separate entry of the source.

Assays:
[1] = test system: Jurkat T cell leukemia cells; assay: Viability of Jurkat T cell leukemia cells after treatment; format: cell-based; conditions: various doses, 24 hours treatment
[2] = test system: Caki-1 renal cell carcinoma cells; assay: Viability of Caki-1 renal cell carcinoma cells after treatment; format: cell-based; conditions: various doses, 24 hours treatment
Description: Caki-1 renal carcinoma cells were treated with either control (DMSO) or various doses (e.g. 0.002, 0.005, 0.014, 0.041, 0.123, 0.370, 1.111, 3.333 and 10 μM) of a GPX4 inhibitor (RSL3 or ML162) in the presence or absence of 1 μM Ferrostatin for 24 hours prior to co-culture with THP1-Dual cells for an additional 24 hours. […] Caki-1 cells were acquired from ATCC and THP1-Dual cells acquired from InvivoGen (San Diego, Calif.). Both cell types were cultured in 96-well plates for the duration of the assay.

[3] = test system: NFKB; assay: NFKB reporter activity in THP1-Dual monocytes co-cultured with treated Jurkat cells; format: cell-based, human; conditions: Jurkat cells treated 24 hours, then co-culture with THP1-Dual cells 24 hours; versus DMSO
Description: (§1) Jurkat T cell leukemia cells were treated with either control (DMSO) or various doses of RSL3, for 24 hours prior to co-culture with THP1-Dual cells for an additional 24 hours. RSL3 was purchased from Selleckchem (Houston, Tex.) and dissolved in DMSO. Subsequently, the THP1 supernatants were assessed for NFKB or IRF reporter activity.
(§2) Jurkat cells were acquired from ATCC and THP1-Dual cells acquired from InvivoGen (San Diego, Calif.). Both cell types were cultured in 96-well plates for the duration of the assay. 100,000 Jurkat cells were plated 24 hours prior to dosing with RSL3, with a final DMSO concentration of 0.5%. 24 hours post-treatment, THP1-Dual cells (25,000 cells/well) were added to the Jurkat cells. 24 hours later, 30 μl of supernatant was mixed with either 200 μl QuantiBlue (InvivoGen, San Diego, Calif.) or 50 μl QuantiLuc and absorbance or luminescence was recorded on a Molecular Devices plate reader.

[4] = test system: A20 lymphoma cells; assay: Viability of A20 B-cell leukemia / lymphoma cells after treatment; format: cell-based; conditions: various doses, 24 hours treatment
[5] = test system: NFKB; assay: NFKB reporter activity in THP1-Dual monocytes co-cultured with treated Caki-1 cells; format: cell-based, human; conditions: Caki-1 cells treated 24 hours, then co-culture with THP1-Dual cells 24 hours; versus DMSO
Description: as §1, with “Caki-1 renal” for “Jurkat T”, “carcinoma” for “leukemia”, “Erastin,” for “RSL3,”, “Erastin” for “RSL3”
as §2, with “Caki-1” for “Jurkat”, “7,500 Caki-1” for “100,000 Jurkat”, “Erastin,” for “RSL3,”, “(InvivoGen)” for “(InvivoGen, San Diego, Calif.)”
as §1, with “Caki-1 renal” for “Jurkat T”, “carcinoma” for “leukemia”, “Selleckchem” for “Selleckchem (Houston, Tex.)”
as §2, with “Caki-1” for “Jurkat”, “7,500 Caki-1” for “100,000 Jurkat”
Caki-1 renal carcinoma cells were treated with either control (DMSO) or various doses (e.g. 0.002, 0.005, 0.014, 0.041, 0.123, 0.370, 1.111, 3.333 and 10 μM) of a GPX4 inhibitor (RSL3 or ML162) in the presence or absence of 1 μM Ferrostatin for 24 hours prior to co-culture with THP1-Dual cells for an additional 24 hours. Subsequently, the THP1 supernatant was assessed for NFKB reporter activity. Caki-1 cells were acquired from ATCC and THP1-Dual cells acquired from InvivoGen (San Diego, Calif.). Both cell types were cultured in 96-well plates for the duration of the assay.

[6] = test system: NFKB; assay: NFKB reporter activity in THP1-Dual monocytes co-cultured with treated A20 cells; format: cell-based, human; conditions: A20 cells treated 24 hours, then co-culture with THP1-Dual cells 24 hours; versus DMSO
Description: as §1, with “A20 B-cell” for “Jurkat T cell”
as §2, with “A20” for “Jurkat”, “50,000 A20” for “100,000 Jurkat”
A20 lymphoma cells were treated with various doses (e.g. 0.002, 0.005, 0.014, 0.041, 0.123, 0.370, 1.111, 3.333 and 10 μM) of a GPX4 inhibitor (RSL3, ML162 or ML210) in the presence or absence of 1 μM Ferrostatin-1 for 24 hours. ML162 was purchased from Cayman Chemical Company Inc and resuspended in DMSO. ML210 was purchased from Sigma-Aldrich and resuspended in DMSO. A20 lymphoma cells were also treated with DMSO as a negative control. After treatment with DMSO or a GPX4 inhibitor for 24 hours, the A20 lymphoma cells were co-cultured with THP1-Dual cells for an additional 24 hours. Subsequently, the THP1 supernatant was assessed for NFKB reporter activity. A20 cells were acquired from ATCC and THP1-Dual cells were acquired from InvivoGen (San Diego, Calif.). Both cell types were cultured in 96-well plates for the duration of the assay.

[7] = test system: IRF; assay: IRF reporter activity in THP1-Dual monocytes co-cultured with treated A20 cells; format: cell-based, human; conditions: A20 cells treated 24 hours, then co-culture with THP1-Dual cells 24 hours; versus DMSO
Description: as §2, with “A20 B-cell leukemia cells were treated with either control (DMSO) or various doses of RSL3, for 24 hours prior to co-culture with THP1-Dual cells for an additional 24 hours. RSL3 was purchased from Selleckchem (Houston, Tex.) and dissolved in DMSO. Subsequently, the THP1 supernatants were assessed for NFKB or IRF reporter activity. A20 cells” for “Jurkat cells”, “assay. 50,000 A20” for “assay. 100,000 Jurkat”, “the A20” for “the Jurkat”

[8] = test system: RAS-expressing cells; conditions: knockdown studies; U.S. Pat. No. 8,546,421; cited from earlier work

COC(=O)c1ccc([C@H]2c3[nH]c4ccccc4c3C[C@H](C(=O)OC)N2C(=O)CCl)cc1 [RSL3]
viability of Jurkat T cell leukemia cells [1]: negatively affected the viability | viability of Caki-1 cells [2]: negatively affected the viability; also recorded: decreased viability of the cells in a dose dependent manner | NFKB signaling in THP1 monocytes [3]: elicited NFKB signaling | viability of A20 cells [4]: negatively affected the viability; also recorded: decreased viability of the cells in a dose dependent manner | NFKB signaling/activity in THP1 monocytes [5]: elicited NFKB signaling; also recorded: increased NFKB activity in THP1 cells in a dose dependent manner | NFKB signaling/activity in THP1 monocytes [6]: elicited; also recorded: increased NFKB activity in THP1 cells in a dose dependent manner | IRF signaling in THP1 monocytes [7]: elicited | death of RAS-expressing cells [8]: selectively mediated the death of RAS-expressing cells | lipid ROS accumulation [8]: increasing lipid ROS accumulation
